From patent US9809602B2, “Compounds for treating viral infections” (INSTITUT PASTEUR KOREA, priority 2014, dated 2017)

Test system: genotype 1/2 chimeric cell culture derived HCV (HCVcc)
Assay: Genotype 1/2 chimeric HCVcc assay (nano-luciferase, HCV replication)
Type: cell-based
Settings: Hepatitis C virus, Huh7.5, 72 h
Experimental: Naïve Huh-7.5 target cells were plated at 2400 cells/well in 25 μL of culture media in 384-well plates (Greiner bio-one, μ clear black). After overnight incubation, compounds serially diluted in 10 μL of cell culture media were added. After 2 h compound treatment, cells were inoculated with 40 μL of genotype 1/2 chimeric cell culture derived HCV (HCVcc) which express structural proteins of an HCV genotype 1a isolate (TN accession number EF621489) and non-structural proteins of HCV genotype 2a (JFH-1) with nano-luciferase reporter. At 72 h post infection, nano-luciferase activity (Nano-Glo™, Promega) and cellular ATP (Cell titer-Glo™, Promega) were measured as a marker for HCV replication and cytotoxicity, respectively. EC50 and CC50 were calculated by non-linear regression analyzing using GraphPad Prism (GraphPad Software).

SMILES | EC50
CCOC(=O)c1c(NC(=O)NC(C)c2c(-n3cccc3)sc3c2CCN(CC)C3)sc2c1CCCC2 (stereo not shown) [Compound 1] | 100 to 1000 nM
CCOC(=O)c1c(NC(=O)NCc2c(-n3cccc3)sc3c2CCN(CC)C3)sc2c1CCCC2 [Compound 2] | < 100 nM
CCOC(=O)c1c(NC(=O)NCc2ccsc2)sc2c1CCCC2 [Compound 3] | < 100 nM
CCOC(=O)c1c(NC(=O)NCc2c(-n3cccc3)sc3c2CCCC3)sc2c1CCCC2 [Compound 4] | < 100 nM
CCN1CCc2c(sc(-n3cccc3)c2CNC(=O)Nc2sc3c(c2C#N)CCCC3)C1 [Compound 5] | > 10000 nM
N#Cc1c(NC(=O)NCc2c(-n3cccc3)sc3c2CCCC3)sc2c1CCCC2 [Compound 6] | 1000 to 10000 nM
CCOC(=O)c1c(NC(=O)NCc2c(-n3cccc3)sc3c2CCN(Cc2ccccc2)C3)sc2c1CCCC2 [Compound 7] | < 100 nM
CCN1CCc2c(sc(-n3cccc3)c2CNC(=O)Nc2ccccc2)C1 [Compound 8] | > 10000 nM
CCN1CCc2c(sc(-n3cccc3)c2CNC(=O)Nc2cccc(Cl)c2)C1 [Compound 9] | > 10000 nM
CCN1CCc2c(sc(-n3cccc3)c2CNC(=O)Nc2ccccc2C(=O)OC)C1 [Compound 10] | > 10000 nM
CCN1CCc2c(sc(-n3cccc3)c2CNC(=O)Nc2nccs2)C1 [Compound 13] | > 10000 nM
CCN1CCc2c(sc(-n3cccc3)c2CNC(=O)Nc2sc3c(c2C(=O)OC(C)(C)C)CCCC3)C1 [Compound 14] | < 100 nM
CCN1CCc2c(sc(-n3cccc3)c2CNC(=O)Nc2cccs2)C1 [Compound 15] | > 10000 nM
CCN1CCc2c(sc(-n3cccc3)c2CNC(=O)Nc2sc3c(c2C(=O)O)CCCC3)C1 [Compound 16] | > 10000 nM
CCOC(=O)c1c(NC(=O)c2cc3c(s2)CCCC3)sc2c1CCN(CC)C2 [Compound 17] | 1000 to 10000 nM
CCOC(=O)c1c(NC(=O)NCc2c(-n3cccc3)sc3c2CCN(Cc2ccc(OC)cc2)C3)sc2c1CCCC2 [Compound 18] | < 100 nM
CCOC(=O)c1c(NC(=O)NCc2c(-n3cccc3)sc3c2CCN(C(C)=O)C3)sc2c1CCCC2 [Compound 20] | < 100 nM
CCOC(=O)c1c(NC(=O)NCc2c(-n3cccc3)sc3c2CCN(S(C)(=O)=O)C3)sc2c1CCCC2 [Compound 21] | < 100 nM
CCOC(=O)c1c(NC(=O)NCc2c(-n3cccc3)sc(CN(C)C)c2C)sc2c1CCCC2 [Compound 22] | < 100 nM
CCOC(=O)c1c(NC(=O)c2c(-n3cccc3)sc3c2CCN(CC)C3)sc2c1CCCC2 [Compound 23] | 1000 to 10000 nM
CCOC(=O)c1cc(C(C)C)sc1NC(=O)NCc1c(-n2cccc2)sc2c1CCN(CC)C2 [Compound 24] | 100 to 1000 nM
CCN1CCc2c(sc(-n3cccc3)c2CNC(=O)Nc2sc(C)c(C)c2C(=O)OC(C)(C)C)C1 [Compound 25] | < 100 nM
CCOC(=O)c1c(NC(=O)NCc2c(-n3cccc3)sc3c2CCN(CC)C3)sc2c1CCN(CC)C2 [Compound 26] | < 100 nM
CCOC(=O)c1c(NC(=O)NCc2c(-n3cccc3)sc3c2CCN(CC(C)C)C3)sc2c1CCCC2 [Compound 27] | < 100 nM
CCOC(=O)c1c(NC(=O)NCc2c(-n3cccc3)sc3c2CCN(Cc2ccccc2)C3)sc(C)c1C [Compound 28] | < 100 nM

SMILES | EC50
CCOC(=O)c1c(NC(=O)NCc2ccc(CN(C)C)cc2)sc2c1CCCC2 [Compound 29] | 100 to 1000 nM
CCOC(=O)c1c(NC(=O)NCc2c(N3C(=O)CCC3=O)sc3c2CCN(CC)C3)sc2c1CCCC2 [Compound 31] | 100 to 1000 nM
CCOC(=O)c1c(NC(=O)NCc2c(-n3cccc3)sc3c2CCN(CC)C3)sc(OC)c1C [Compound 32] | 100 to 1000 nM
CCOC(=O)c1c(NC(=O)NCc2c(-n3cccc3)sc3c2CCN(CC)C3)sc(N2CCOCC2)c1C [Compound 33] | 100 to 1000 nM
CCOC(=O)c1c(NC(=O)NCc2c(-n3cccc3)sc3c2CCN(CC)C3)sc2ccccc12 [Compound 34] | 100 to 1000 nM
CCOC(=O)c1c(NC(=O)NCc2csc3c2CCCC3)sc2c1CCCC2 [Compound 35] | < 100 nM
CCNC(=O)c1c(NC(=O)NCc2c(-n3cccc3)sc3c2CCN(CC)C3)sc2c1CCCC2 [Compound 36] | < 100 nM
CCN1CCc2c(sc(-n3cccc3)c2CNC(=O)Nc2sc3c(c2C(N)=O)CCCC3)C1 [Compound 37] | 100 to 1000 nM
CCOC(=O)c1c(NC(=O)NCc2csc3c2CCNC3)sc2c1CCCC2 [Compound 38] | < 100 nM
CCOC(=O)c1c(NC(=O)NCc2c(-n3cccc3)sc3c2CCN(CC)C3)sc(C(C)=O)c1C [Compound 39] | < 100 nM
CCOC(=O)c1cc(-c2ccccc2)sc1NC(=O)NCc1c(-n2cccc2)sc2c1CCN(CC)C2 [Compound 40] | 100 to 1000 nM
CCOC(=O)c1c(NC(=O)NCc2c(-n3cccc3)sc3c2CCN(CC)C3)sc2c1CCOC2 [Compound 41] | < 100 nM
CCOC(=O)c1c(NC(=O)NCc2c(-n3cccc3)sc3c2CCN(CC)C3)sc(C)c1-c1ccc(F)cc1 [Compound 42] | < 100 nM
CCN1CCc2c(sc(-n3cccc3)c2CNC(=O)Nc2sc3c(c2-c2nnc(C)o2)CCCC3)C1 [Compound 43] | < 100 nM
CCOC(=O)c1c(NC(=S)NCc2c(-n3cccc3)sc3c2CCN(CC)C3)sc2c1CCCC2 [Compound 44] | < 100 nM
CCOC(=O)c1cc2ccccc2cc1NC(=O)NCc1c(-n2cccc2)sc2c1CCN(CC)C2 [Compound 45] | 1000 to 10000 nM
CCOC(=O)c1c(NC(=O)NCc2c(-n3cccc3)sc3c2CCN(CC)C3)sc2c1CCNC2 [Compound 46] | 100 to 1000 nM
CCOC(=O)c1c(NC(=O)NCc2c(-n3cccc3)sc3c2CCN(CC)C3)sc2c1CCN(C(C)=O)C2 [Compound 47] | < 100 nM
CCOC(=O)c1c(NC(=O)NCc2c(-n3cccc3)sc3c2CCOC3)sc2c1CCCC2 [Compound 48] | < 100 nM
CCOC(=O)c1c(NC(=O)NC(=O)c2c(-n3c(C)ccc3C)sc3c2CCN(CC)C3)sc2c1CCCC2 [Compound 49] | 1000 to 10000 nM
CCOC(=O)c1c(NC(=O)NCc2c(-n3cccc3)sc(C(=O)OC(C)(C)C)c2C)sc2c1CCCC2 [Compound 50] | 1000 to 10000 nM
CCOC(=O)c1c(NC(=O)NCc2c(-n3c(C)ccc3C)sc3c2CCN(CC)C3)sc2c1CCCC2 [Compound 51] | < 100 nM
CCOC(=O)c1c(NC(=O)NCc2c(-n3cccc3)sc(C(=O)N(C)C)c2C)sc2c1CCCC2 [Compound 52] | 100 to 1000 nM
CCOC(=O)c1c(NC(=O)NCc2c(-n3cccc3)sc(CN3CCOCC3)c2C)sc2c1CCCC2 [Compound 53] | < 100 nM
CCOC(=O)c1c(NC(=O)NCc2c(N3CCOCC3)sc3c2CCNC3)sc2c1CCCC2 [Compound 54] | 100 to 1000 nM

SMILES | EC50
CCOC(=O)c1c(N(C)C(=O)NCc2c(-n3cccc3)sc3c2CCN(CC)C3)sc2c1CCCC2 [Compound 55] | 1000 to 10000 nM
CCOC(=O)c1c(NC(=O)NCc2c(-n3cccc3)sc3c2CCN(CC)C3)sc2c1CCCCC2 [Compound 56] | < 100 nM
CCOC(=O)c1c(NC(=O)NCc2c(-n3cccc3)sc3c2CCN(CC)C3)sc2c1CCC2 [Compound 57] | < 100 nM
CCOC(=O)c1c(NC(=O)NCc2c(-n3cccc3)sc3c2CCN(CC)C3)sc(C(=O)N(C)C)c1C [Compound 58] | 1000 to 10000 nM
CCNC(=O)c1c(NC(=O)NCc2c(-n3cccc3)sc3c2CCNC3)sc2c1CCCC2 [Compound 59] | < 100 nM
Cc1nnc(-c2c(NC(=O)NCc3c(-n4cccc4)sc4c3CCNC4)sc3c2CCCC3)o1 [Compound 60] | 100 to 1000 nM
CCOC(=O)c1c(NC(=O)NCc2c(-n3cccc3)sc3c2CCNC3)sc2c1CCCC2 [Compound 61] | < 100 nM
CCOC(=O)c1c(NC(=O)NCc2c(-c3ccccc3)sc3c2CCNC3)sc2c1CCCC2 [Compound 62] | 100 to 1000 nM
CCOC(=O)c1c(NC(=O)NCc2c(-n3cccc3)sc3c2CCNC3)sc2ccccc12 [Compound 63] | 100 to 1000 nM
CCOC(=O)c1c(NC(=O)NCc2c(-n3cccc3)sc3c2CCNC3)sc2c1CCNC2 [Compound 64] | 1000 to 10000 nM
Cc1nnc(-c2c(NC(=O)NCc3c(-n4cccc4)sc4c3CCN(C)C4)sc3c2CCCC3)o1 [Compound 65] | < 100 nM
CCOC(=O)c1c(NC(=O)NCc2c(-n3cccc3)sc3c2CCN(C)C3)sc2ccccc12 [Compound 66] | < 100 nM
CCOC(=O)c1c(NC(=O)NCc2c(-n3cccc3)sc3c2CCN(C)C3)sc2c1CCCC2 [Compound 67] | < 100 nM
CN1CCc2c(sc(-n3cccc3)c2CNC(=O)Nc2sc3c(c2C(=O)OC(C)(C)C)CCCC3)C1 [Compound 68] | < 100 nM
Cc1sc(NC(=O)NCc2c(-n3cccc3)sc3c2CCN(C)C3)c(C(=O)OC(C)(C)C)c1C [Compound 69] | < 100 nM
CCOC(=O)c1c(NC(=O)NCc2c(-n3cccc3)sc3c2CCNC3)sc(C)c1C [Compound 70] | 100 to 1000 nM
CCOC(=O)c1c(NC(=O)NCc2c(-n3cccc3)sc3c2CCN(C)C3)sc(C)c1C [Compound 71] | < 100 nM
Cc1nnc(-c2c(NC(=O)NCc3c(-n4cccc4)sc4c3CCNC4)sc(C)c2C)o1 [Compound 72] | 100 to 1000 nM
CCOC(=O)c1c(NC(=O)NCc2c(N3CCCC3)sc3c2CCN(C(=O)OC(C)(C)C)C3)sc2c1CCCC2 [Compound 73] | < 100 nM
Cc1nnc(-c2c(NC(=O)NCc3c(-n4cccc4)sc4c3CCN(C)C4)sc(C)c2C)o1 [Compound 74] | < 100 nM
CCOC(=O)c1c(NC(=O)NCc2c(-n3cccc3)sc3c2CCNC3)sc2c1CCC(F)(F)C2 [Compound 75] | < 100 nM
O=C(NCc1c(-n2cccc2)sc2c1CCNC2)Nc1sc2c(c1C(=O)N1CCOCC1)CCCC2 [Compound 76] | 100 to 1000 nM
CCOC(=O)c1c(N/C(=N/C#N)NCc2c(-n3cccc3)sc3c2CCN(CC)C3)sc2c1CCCC2 [Compound 77] | > 10000 nM
